The values that follow come from ChEMBL document CHEMBL1136116 (Bioorg Med Chem Lett, 2003).

Test [1] has as its target Cyclin-dependent kinase 2/cyclin E (Homo sapiens, UniProt P24941). Nature of the test: Inhibitory activity against Cyclin-dependent kinase 2-cyclin E. Type of test: protein-complex assay.
Test [2] has as its target Cyclin-dependent kinase 4/cyclin D (Homo sapiens, UniProt P11802). The experiment in a line: Inhibition of CDK4-Cyclin D. The format is protein-complex assay.
The target of test [3] is Cyclin-dependent kinase 1/cyclin B (Homo sapiens, UniProt P06493). The experiment in a line: Inhibition of Cyclin-dependent kinase 1-cyclin B. The format is protein-complex assay.
The next test has as its system A2780. Nature of the test: Cytotoxic effect on ovarian cancer cell line (A2780). The format is functional, cell-based. The conditions noted are these: Homo sapiens.

As usually defined, the IC50 is the concentration at which inhibition is half-maximal. A higher IC50 goes with lower potency. `CCCCOc1c(C(=O)Cc2ccccc2)cnc2[nH]ncc12` showed an IC50 in test [1] of over 1000 nM.

As for `CCCCOc1c(C(=O)c2c(F)cc(C)cc2F)c[nH]c2nncc1-2`, the half-inhibitory concentration (IC50) is 230 nM in test [2], 6 nM in test [3], 9 nM in test [1] and 760 nM with A2780.

`CCCCOc1c(C(=O)NCC)cnc2[nH]ncc12` returned an IC50 in test [1] of 8100 nM.

Turning to `CCCCOc1c(C(=O)c2ccc(C)cc2)cnc2[nH]ncc12`, in test [1], the IC50 came to 210 nM.

`CCCCOc1c(C(=O)c2c(F)cc(OC)cc2F)cnc2[nH]ncc12`: the figures for the IC50 in test [2], in test [3] and in test [1] were 230 nM, 7 nM and 22 nM, respectively.

As to `CCCCOc1c(C(=O)c2ccccc2C)cnc2[nH]ncc12`, the figures for the IC50 in test [3] and in test [1] were 410 nM and 730 nM, respectively.

In test [1], `CCCCOc1c(C(=O)OC)cnc2[nH]ncc12` registered an IC50 of over 10000 nM.

On to `CCCCOc1c(C(=O)c2ccccc2)cnc2[nH]ncc12` [SQ-67563], for which, in test [2], the IC50 was over 25000 nM.

Turning to `CCCCOc1c(C(=O)Nc2ccccc2)cnc2[nH]ncc12`, 19000 nM corresponded to half-maximal inhibition in test [1] (IC50).

As to `CCCCOc1c(C(=O)c2nccs2)cnc2[nH]ncc12`, the IC50 is 450 nM in test [3] and 210 nM in test [1].

In test [1], `CCCCOc1c(C(C)=O)cnc2[nH]ncc12` displayed an IC50 of over 1000 nM.

Take `CCCCOc1c(C(=O)c2cccnc2)cnc2[nH]ncc12`: inhibition in test [1] was half-maximal at 2400 nM (IC50).

`CCCCOc1c(C(=O)c2ccccc2F)cnc2[nH]ncc12`: the half-inhibitory concentration (IC50) in test [2] was 24000 nM; in test [3], 360 nM; in test [1], 36 nM.

Turning to `CCCCOc1c(C(=O)c2cccs2)cnc2[nH]ncc12`, the IC50 in test [3] came to 230 nM; in test [1] it was 200 nM.

As to `CCCCOc1c(C(=O)c2cccc(C)c2)cnc2[nH]ncc12`, in test [1], the 50% inhibitory concentration (IC50) is 660 nM.

`CCCCOc1c(C(=O)c2c(F)cccc2F)cnc2[nH]ncc12`: the IC50 in test [2] is 21000 nM; in test [3], 32 nM; in test [1], 64 nM.

In test [1], `CCCCOc1c(C(=O)c2c(C)cc(C)cc2C)cnc2[nH]ncc12` showed an IC50 of over 1000 nM.

Consider `CCCCOc1c(C(=O)C2CC2)cnc2[nH]ncc12`, for which the IC50 in test [1] turned out to be 2700 nM.

In test [1], `CCCCOc1c([S+]([O-])c2ccccc2)cnc2[nH]ncc12` (stereo not given) had an IC50 of 340 nM.

Turning to `CCCCOc1c(C(=O)c2c(F)cc(Cl)cc2F)cnc2[nH]ncc12`, the IC50 in test [2] came out at 310 nM; in test [3] it was 13 nM; in test [1] it was 27 nM.

With `CCCCOc1c(C(=O)c2ccco2)cnc2[nH]ncc12`, the IC50 in test [3] came out at 280 nM; in test [1], 180 nM.

Take `CCCCOc1c(C(=O)c2c(F)cc(Br)cc2F)cnc2[nH]ncc12`: the IC50 in test [2] was 370 nM; in test [3], 17 nM; in test [1] it was 20 nM.

In turn, `CCCCOc1c(S(=O)(=O)c2ccccc2)cnc2[nH]ncc12` showed an IC50 in test [1] of 520 nM.
